No end group written: not given here. *: point of attachment. Octanoyl = CCCCCCCC(=O)*
Legend:
[1] = system: animals with poor physical conditions, surgery or no surgery; assay: Example 3-2: improvement after ghrelin in animals which had or had not undergone a surgery; type: in vivo, canines and felines; details: dash = no significant difference
Experimental: A canine-derived ghrelin was repeatedly administered intravenously or subcutaneously to each of the animals with poor physical conditions. The dose of intravenous administration was approximately 5 μg/kg or 10 μg/kg, and the dose of subcutaneous administration was approximately 100 μg/kg. The mean number of doses in repeated administration was approximately four times, and the maximum number of doses was 11 times. The administration period was one to six days.
Evaluation parameters evaluated before and after administration of ghrelin were appetite, quantity of meal, biochemical test values (GOT, GPT, BUN, CRE, CPK, CRP), blood cell test values (white blood cell [WBC], platelet [PLT]), body temperature, activity (vigor), skin, coat, wellness, the degree of anger or anxiety, respiratory rate, and others. These parameters were analyzed together with the results of the animals receiving a single dose (Examples 1 and 2). The analysis results were compiled by disease, such as renal dysfunction, tumor, fracture, and accident (see Table 3-1). Statistical analysis of values before and after administration was performed using a paired t-test.
Ghrelin was administered to animals with poor physical conditions after surgery for the treatment of various pathological conditions, and various parameters indicating physical conditions before and after administration of ghrelin were analyzed. The surgery included urethroplasty, surgery for a fracture, luxation, disc hernia, or diaphragmatic hernia, surgical removal of a tumor, and surgical removal of a reproductive organ due to pyometra.
Meanwhile, ghrelin was administered to animals with poor physical conditions due to various pathological conditions which had not undergone a surgery, and various parameters indicating physical conditions before and after administration of ghrelin were analyzed. The pathological conditions included filariasis, mite infestation, babesiosis, hemobartonellosis, bite, and dermatitis.

[2] = system: hospitalized animals (canines and felines) after surgery; assay: Example 1: single dose of ghrelin in hospitalized animals after surgery, parameters before vs after administration; type: in vivo; details: for Body temperature: animals improved/animals evaluated / Biochemical tests: animals improved/animals evaluated / Body temperature: response rate / Activity (vigor): animals improved/animals evaluated / Hematology tests: animals improved/animals evaluated: single dose
Experimental: In these Examples, a canine-derived ghrelin (a peptide compound in which a side chain hydroxyl group of the serine residue at the 3rd position from the amino terminus is acylated with an n-octanoyl group in SEQ ID NO: 1) was used as ghrelin. The canine-derived ghrelin was chemically synthesized and then lyophilized, and a canine-derived ghrelin for administration containing 0.1, 0.3, 0.5, or 1 mg per vial of a canine-derived ghrelin was prepared.
To administer ghrelin to animals, the canine-derived ghrelin was dissolved to a concentration of 1 mg/2 mL in physiological saline and intravenously, subcutaneously, or intramuscularly injected after the dose was adjusted depending on the body weight.
Animals hospitalized in veterinary hospitals, particularly canines and felines, were used for treatment. These animals may or may not have undergone a surgery for treatment. The surgeries performed on the animals were pyometra surgery, surgical removal of a reproductive organ, surgical removal of mammary gland tumor, ovary cyst surgery, liver cell tumor surgery, disc hernia surgery, diaphragmatic hernia surgery, fracture surgery, gastrointestinal tract surgery, and urethroplasty.
Physical conditions in animals with various pathological conditions were examined by measuring parameters including activity (vigor), blood cell test values, biochemical test values, urinalysis, electrolyte tests, body weight, body temperature, the degree of anger or anxiety, respiratory rate, and the like to evaluate the effect of improving physical conditions in the animals. The effect was evaluated by comparing various evaluation parameters before and after administration.
The evaluation parameters used were activity (vigor), body temperature, hematology parameters (blood cell test values), serum biochemistry parameters (biochemical test values), the degree of anger or anxiety, and respiratory rate. […] The degree of anger or anxiety of an animal observed visually by an observer were also evaluated using the following criteria: 1. calm and accustomed to a health care professional, 2. able to be touched by but unaccustomed to a health care professional and restless, 3. wandering around or hiding in the kennel with anxiety, 4. able to be barely touched, and 5. too violent to be touched by a health care professional and tends to bite.
13.2 to 80 μg/kg of a canine-derived ghrelin (chemically synthesized) was administered by an intravenous injection, a subcutaneous injection, or an intramuscular injection (solution for an injection: physiological saline or the like) to 32 animals (canines and felines) after surgery which were hospitalized in veterinary hospitals. The 32 cases of the animals were as follows.
Pyometra surgery and surgical removal of reproductive organ, 18 animals; mammary gland tumor surgery, three animals (including one animal also having pyometra); disc hernia surgery, two animals; surgery for a fracture or a traffic accident injury, three animals; urethroplasty, three animals; gastrointestinal tract surgery, two animals; and pneumothorax surgery, one animal.
Improvement of physical conditions of these animals was evaluated in terms of activity (vigor), body temperature, hematology parameters (blood cell test values), and serum biochemistry parameters (biochemical test values).

[3] = gastrointestinal tract surgery, 2 animals
[4] = pyometra surgery and surgical removal of reproductive organ, 18 animals
[5] = surgical removal of mammary gland tumor, 3 animals
[6] = total, 32 animals after surgery

GSS (n-octanoyl) FLSPEHQKLQQRKESKKPPAKLQPR (GSS(Octanoyl)FLSPEHQKLQQRKESKKPPAKLQPR; listed as Canis familiaris) [ghrelin, chemically synthesized, lyophilized]
BUN: significance (p) of improvement after vs before administration ([1]; no surgery, 24 animals): p < 0.05 | GPT: significance (p) of improvement after vs before administration ([1]; no surgery, 24 animals): p < 0.05 | Vigor: significance (p) of improvement after vs before administration ([1]; no surgery, 24 animals): p < 0.01 | WBC: significance (p) of improvement after vs before administration ([1]; no surgery, 24 animals): p < 0.05 | BUN: significance (p) of improvement after vs before administration ([1]; surgery, 70 animals): p < 0.05 | Body temperature: significance (p) of improvement after vs before administration ([1]; surgery, 70 animals): p < 0.01 | CRE: significance (p) of improvement after vs before administration ([1]; surgery, 70 animals): p < 0.05 | Degree of anger: significance (p) of improvement after vs before administration ([1]; surgery, 70 animals): p < 0.01 | GOT: significance (p) of improvement after vs before administration ([1]; surgery, 70 animals): p < 0.01 | GPT: significance (p) of improvement after vs before administration ([1]; surgery, 70 animals): p < 0.01 | PLT: significance (p) of improvement after vs before administration ([1]; surgery, 70 animals): p < 0.05 | Respiratory rate: significance (p) of improvement after vs before administration ([1]; surgery, 70 animals): p < 0.05 | Vigor: significance (p) of improvement after vs before administration ([1]; surgery, 70 animals): p < 0.01 | Body temperature: animals improved/animals evaluated ([2]; disc hernia surgery, 2 animals): 1/1 | Serum creatinine (Cre) value after administration ([2]; example, animal after surgery, before administration 6.0 mg/dL): 1.1 mg/dL | Blood urea nitrogen (BUN) value after administration ([2]; example, animal after surgery, before administration 44.2 mg/dL): 29.3 mg/dL | Total cholesterol (T-CHO) value after administration ([2]; example, animal after surgery, before administration 405 mg/dL): 260 mg/dL | Glutamic pyruvic transaminase (GPT) value after administration ([2]; example, animal after surgery, before administration 180 IU/L): 85 IU/L | Alkaline phosphatase (ALP) value after administration ([2]; example, animal after surgery, before administration 345 IU/L): 286 IU/L | Creatinine phosphokinase (CPK) value after administration ([2]; example, animal after surgery, before administration 1429 IU/L): 955 IU/L | C-reactive protein (CRP) value after administration ([2]; example, animal after surgery, before administration upper limit of measurement): 7.3 mg/dL | White blood cell count after administration ([2]; example, animal after surgery, high count decreased, before administration 44.1×10^3/μL): 17700 µL⁻¹ | Platelet count after administration ([2]; example, animal after surgery, low count increased, before administration 13.9×10^4/μL): 585000 µL⁻¹ | Red blood cell count after administration ([2]; example, animal after surgery, low count increased, before administration 214×10^4/μL): 3.04e+06 µL⁻¹ | Hemoglobin level after administration ([2]; example, animal after surgery, low level increased): 7.7 g/dL | Biochemical tests: animals improved/animals evaluated [2, 3]: 1/1 | Body temperature: animals improved/animals evaluated [2, 3]: 1/1 | Body temperature: animals improved/animals evaluated ([2]; pneumothorax surgery, 1 animal): 0/1 | Body temperature: response rate ([2]; pneumothorax surgery, 1 animal): (0%) | Activity (vigor): animals improved/animals evaluated [2, 4]: 6/7 | Biochemical tests: animals improved/animals evaluated [2, 4]: 3/3 | Body temperature: animals improved/animals evaluated [2, 4]: 3/4 | Hematology tests: animals improved/animals evaluated [2, 4]: 3/4 | Activity (vigor): animals improved/animals evaluated ([2]; surgery for fracture or traffic accident injury, 3 animals): 3/3 | Activity (vigor): animals improved/animals evaluated [2, 5]: 2/2 | Biochemical tests: animals improved/animals evaluated [2, 5]: 1/1 | Body temperature: animals improved/animals evaluated [2, 5]: 1/1 | Hematology tests: animals improved/animals evaluated [2, 5]: 1/1 | Activity (vigor): animals improved/animals evaluated [2, 6]: 11/12 | Biochemical tests: animals improved/animals evaluated [2, 6]: 5/6 | Body temperature: animals improved/animals evaluated [2, 6]: 5/8 | Hematology tests: animals improved/animals evaluated [2, 6]: 4/6 | Activity (vigor): animals improved/animals evaluated ([2]; urethroplasty, 3 animals): 1/1 | Biochemical tests: animals improved/animals evaluated ([2]; urethroplasty, 3 animals): 1/2 | Body temperature: animals improved/animals evaluated ([2]; urethroplasty, 3 animals): 0/1 | Body temperature: response rate ([2]; urethroplasty, 3 animals): (0%) | Hematology tests: animals improved/animals evaluated ([2]; urethroplasty, 3 animals): 1/2

From patent publication US9078868B2, “Therapeutic agent for accelerating recovery of animal under medical treatment” (UNIVERSITY OF MIYAZAKI, priority 2010, dated 2015)
